Results: US10206937B2, “Boronic acid derivatives and therapeutic uses thereof” (Qpex Biopharma, Inc., priority 2014, dated 2019)

Tested on: strains of Enterobacteriaceae producing various carbapenemases (class A, D and B; 169 strains)
Assay: Meropenem or tebipenem potentiation by Compounds 97 or 62 (MIC)
Format: cell-based
Experimental: The largest panel of clinical isolates expressing class A, D and B carbapenemases alone or in combination with other beta-lactamases (169 strains) was used to evaluate carbapenem potentiation activity of Compounds 97 and 62. MIC for meropenem and tebipenem of these strains were determined either alone or in the presence of Compounds 97 or 62, respectively, at a fixed concentration of 8 μg/ml in the growth media.

## C[C@@H](O)[C@H]1C(=O)N2C(C(=O)O)=C(S[C@@H]3CN[C@H](C(=O)N(C)C)C3)[C@H](C)[C@H]12 [M]
KP1182 Klebsiella pneumoniae SHV-OSBL(2b), NDM-1, OXA-232(c)
  Meropenem MIC alone (M): Z (MIC of greater than 10 μg/mL)
KP1183 Klebsiella pneumoniae SHV-OSBL(2b), TEM-OSBL(2b), CTX-M-15, NDM-1
  Meropenem MIC alone (M): Z (MIC of greater than 10 μg/mL)
KP1184 Klebsiella pneumoniae SHV-OSBL(2b), IMP-1
  Meropenem MIC alone (M): Y (MIC of 1 μg/mL to 10 μg/mL)
KP1185 Klebsiella pneumoniae SHV-OSBL(2b), TEM-OSBL(2b), IMP-4
  Meropenem MIC alone (M): Z (MIC of greater than 10 μg/mL)
KP1186 Klebsiella pneumoniae CTX-M-15, NDM-1
  Meropenem MIC alone (M): Z (MIC of greater than 10 μg/mL)
KP1187 Klebsiella pneumoniae SHV-55(2be), TEM-OSBL(2b), CTX-M-15, NDM-1
  Meropenem MIC alone (M): Z (MIC of greater than 10 μg/mL)
KP1188 Klebsiella pneumoniae SHV-OSBL(2b), CTX-M-15, NDM-1
  Meropenem MIC alone (M): Y (MIC of 1 μg/mL to 10 μg/mL)
KP1189 Klebsiella pneumoniae TEM-OSBL(2b), CTX-M-15, CTX-M-27, NDM-1
  Meropenem MIC alone (M): Z (MIC of greater than 10 μg/mL)
KP1190 Klebsiella pneumoniae KPC-4 VIM-4 TEM SHV
  Meropenem MIC alone (M): Z (MIC of greater than 10 μg/mL)
KP1191 Klebsiella pneumoniae KPC-2
  Meropenem MIC alone (M): Z (MIC of greater than 10 μg/mL)
KP1192 Klebsiella pneumoniae KPC-2 TEM SHV
  Meropenem MIC alone (M): Z (MIC of greater than 10 μg/mL)
KP1193 Klebsiella pneumoniae KPC-3 TEM SHV
  Meropenem MIC alone (M): Z (MIC of greater than 10 μg/mL)
KP1194 Klebsiella pneumoniae KPC TEM SHV
  Meropenem MIC alone (M): Z (MIC of greater than 10 μg/mL)
KP1195 Klebsiella pneumoniae KPC TEM CTX-M-15
  Meropenem MIC alone (M): Z (MIC of greater than 10 μg/mL)
KP1196 Klebsiella pneumoniae KPC TEM SHV CTX-M-15 CMY
  Meropenem MIC alone (M): Z (MIC of greater than 10 μg/mL)
KP1197 Klebsiella pneumoniae KPC-3, VIM-1 TEM SHV
  Meropenem MIC alone (M): Z (MIC of greater than 10 μg/mL)
KP1198 Klebsiella pneumoniae KPC-3, VIM-1 TEM SHV
  Meropenem MIC alone (M): Z (MIC of greater than 10 μg/mL)
KP1199 Klebsiella pneumoniae KPC-3 TEM SHV
  Meropenem MIC alone (M): Z (MIC of greater than 10 μg/mL)
KP1200 Klebsiella pneumoniae KPC-3 TEM SHV
  Meropenem MIC alone (M): Z (MIC of greater than 10 μg/mL)
KP1210 Klebsiella pneumoniae KPC SHV TEM
  Meropenem MIC alone (M): Z (MIC of greater than 10 μg/mL)
KP1211 Klebsiella pneumoniae KPC SHV TEM CTX-M-15
  Meropenem MIC alone (M): Z (MIC of greater than 10 μg/mL)
KP1212 Klebsiella pneumoniae KPC SHV TEM CTX-M-15
  Meropenem MIC alone (M): Z (MIC of greater than 10 μg/mL)
KP1213 Klebsiella pneumoniae KPC SHV TEM CTX-M-15
  Meropenem MIC alone (M): Z (MIC of greater than 10 μg/mL)
KP1214 Klebsiella pneumoniae KPC SHV TEM + 1.9 kb
  Meropenem MIC alone (M): Z (MIC of greater than 10 μg/mL)
KP1215 Klebsiella pneumoniae KPC SHV
  Meropenem MIC alone (M): Z (MIC of greater than 10 μg/mL)
KP1216 Klebsiella pneumoniae KPC SHV TEM + 1.9 kb
  Meropenem MIC alone (M): Z (MIC of greater than 10 μg/mL)
KP1217 Klebsiella pneumoniae KPC SHV TEM + 1.9 kb
  Meropenem MIC alone (M): Z (MIC of greater than 10 μg/mL)
KP1218 Klebsiella pneumoniae KPC SHV TEM + 1.9 kb
  Meropenem MIC alone (M): Z (MIC of greater than 10 μg/mL)
KP1219 Klebsiella pneumoniae KPC SHV TEM + 1.9 kb
  Meropenem MIC alone (M): Z (MIC of greater than 10 μg/mL)
KP1220 Klebsiella pneumoniae KPC SHV TEM + 1.9 kb
  Meropenem MIC alone (M): Z (MIC of greater than 10 μg/mL)
KP1221 Klebsiella pneumoniae KPC SHV TEM + 1.9 kb
  Meropenem MIC alone (M): Z (MIC of greater than 10 μg/mL)
KP1222 Klebsiella pneumoniae KPC SHV TEM IMP
  Meropenem MIC alone (M): Z (MIC of greater than 10 μg/mL)
KP1223 Klebsiella pneumoniae KPC SHV TEM
  Meropenem MIC alone (M): Z (MIC of greater than 10 μg/mL)
KP1224 Klebsiella pneumoniae KPC SHV TEM
  Meropenem MIC alone (M): Z (MIC of greater than 10 μg/mL)
KP1225 Klebsiella pneumoniae KPC SHV TEM + 1.9 kb CMY
  Meropenem MIC alone (M): Z (MIC of greater than 10 μg/mL)
KP1226 Klebsiella pneumoniae KPC SHV TEM + 1.9 kb
  Meropenem MIC alone (M): Z (MIC of greater than 10 μg/mL)
KP1227 Klebsiella pneumoniae KPC SHV TEM CTX-M-15
  Meropenem MIC alone (M): Z (MIC of greater than 10 μg/mL)
KP1228 Klebsiella pneumoniae OXA-48 TEM SHV CTX-M-15
  Meropenem MIC alone (M): Y (MIC of 1 μg/mL to 10 μg/mL)
KP1229 Klebsiella pneumoniae OXA-48 TEM SHV CTX-M-15
  Meropenem MIC alone (M): Z (MIC of greater than 10 μg/mL)
KP1230 Klebsiella pneumoniae OXA-48 TEM SHV CTX-M-15
  Meropenem MIC alone (M): Y (MIC of 1 μg/mL to 10 μg/mL)
KP1231 Klebsiella pneumoniae OXA-48 TEM SHV CTX-M-15
  Meropenem MIC alone (M): Y (MIC of 1 μg/mL to 10 μg/mL)
KP1232 Klebsiella pneumoniae OXA-48 TEM SHV CTX-M-15
  Meropenem MIC alone (M): Z (MIC of greater than 10 μg/mL)
KP1234 Klebsiella pneumoniae OXA-48 TEM SHV CTX-M-15
  Meropenem MIC alone (M): Z (MIC of greater than 10 μg/mL)
KP1236 Klebsiella pneumoniae OXA-48 TEM SHV CTX-M-15
  Meropenem MIC alone (M): Z (MIC of greater than 10 μg/mL)
PM1024 Proteus mirabilis TEM-1(2b), CMY-16, VIM-1
  Meropenem MIC alone (M): Z (MIC of greater than 10 μg/mL)
PM1025 Proteus mirabilis SHV-5(2be), TEM-OSBL(2b), VEB-2, VIM-1
  Meropenem MIC alone (M): Y (MIC of 1 μg/mL to 10 μg/mL)
PM1026 Proteus mirabilis DHA-1, IMP-26
  Meropenem MIC alone (M): Z (MIC of greater than 10 μg/mL)
PM1027 Proteus mirabilis VIM-5
  Meropenem MIC alone (M): Z (MIC of greater than 10 μg/mL)
SM1023 Serratia marcescens VIM-4
  Meropenem MIC alone (M): Z (MIC of greater than 10 μg/mL)
SM1024 Serratia marcescens TEM-1(2b), IMP-47
  Meropenem MIC alone (M): Y (MIC of 1 μg/mL to 10 μg/mL)
